Measured values from patent US8563715B2, “Pyrimidine derivative having cell protecting effect and uses thereof” (Zenyaku Kogyo Kabushikikaisha, priority 2008, dated 2013).

Compound	melting point [°C]
Fc1ccccc1N1CCN(c2cc(N3CCOCC3)nc(N3CCN(c4ccccc4)CC3)n2)CC1 [Compound 58, 4-[4-(2-fluorophenyl)piperazin-1-yl]-6-morpholino-2-(4-phenylpiperazin-1-yl)pyrimidine]	90 to 91
Cc1ccccc1N1CCN(c2nc(N3CCOCC3)c(F)c(N3CCN(c4ccccc4C)CC3)n2)CC1 [Compound 129, 2,4-bis[4-(2-methylphenyl)piperazin-1-yl]-5-fluoro-6-morpholinopyrimidine]	106 to 107
c1c(N2CCOCC2)nc(N2CCOCC2)nc1N1CCN(C2CCCCC2)CC1 [Compound 43, 4-[4-(4-cyclohexyl)piperazin-1-yl]-2,6-dimorpholinopyrimidine]	144 to 147
c1ccc(C2CN(c3nc(N4CCOCC4)cc(N4CCOCC4)n3)CCN2)cc1 (centres unmarked) [Compound 16, 4,6-dimorpholino-2-(3-phenylpiperazin-1-yl)pyrimidine]	100 to 104
OC1(c2ccccc2)CCN(c2nc(N3CCOCC3)cc(N3CCOCC3)n2)CC1 [Compound 36, 2-(4-hydroxy-4-phenylpiperidin-1-yl)-4,6-dimorpholinopyrimidine]	157 to 159
CC(=O)C1(c2ccccc2)CCN(c2cc(N3CCOCC3)nc(N3CCOCC3)n2)CC1 [Compound 39, 4-(4-acetyl-4-phenylpiperidin-1-yl)-2,6-dimorpholinopyrimidine]	146 to 147
Cc1ccccc1N1CCN(c2cc(N3CCOCC3)nc(N3CCN(c4ccccc4F)CC3)n2)CC1 [Compound 60, 2-[4-(2-fluorophenyl)piperazin-1-yl]-4-[4-(2-methylphenyl)piperazin-1-yl]-6-morpholinopyrimidine]	98 to 99
c1c(N2CCOCC2)nc(N2CCN(C3CCCCC3)CC2)nc1N1CCOCC1 [Compound 42, 2-[4-(4-cyclohexyl)piperazin-1-yl]-4,6-dimorpholinopyrimidine]	171 to 174
Fc1ccccc1N1CCN(c2nc(N3CCNCC3)c(F)c(N3CCOCC3)n2)CC1 [Compound 182, 5-fluoro-2-[4-(2-fluorophenyl)piperazin-1-yl]-4-morpholino-6-(1-piperazinyl)pyrimidine]	51 to 52
CN(C)c1nc(N2CCOCC2)c(F)c(N2CCN(c3ccccc3F)CC2)n1 [Compound 112, 2-dimethylamino-5-fluoro-4-[4-(2-fluorophenyl)piperazin-1-yl]-6-morpholinopyrimidine]	95
Fc1ccccc1N1CCN(c2cc(N3CCOCC3)nc(N3CCN(c4ccccc4F)CC3)n2)CC1 [Compound 59, 2,4-bis[4-(2-fluorophenyl)piperazin-1-yl]-6-morpholinopyrimidine]	98 to 99
COc1ccccc1N1CCN(c2nc(N(C)C)nc(N3CCOCC3)c2F)CC1 [Compound 111, 2-dimethylamino-5-fluoro-4-[4-(2-methoxyphenyl)piperazin-1-yl]-6-morpholinopyrimidine]	108
CC(C)(C)OC(=O)N1CCN(c2nc(N3CCN(c4ccccc4F)CC3)nc(N3CCOCC3)c2F)CC1 [Compound 181, 4-(4-tert-butoxycarbonylpiperazin-1-yl)-5-fluoro-2-[4-(2-fluorophenyl)piperazin-1-yl]-6-morpholinopyrimidine]	137 to 138
Cc1cccc(N2CCN(c3nc(N4CCN(Cc5ccc(NC(=O)OC(C)(C)C)cc5)CC4)nc(N4CCOCC4)c3F)CC2)c1C [Compound 193, 2-[4-(4-tert-butoxycarbonylaminobenzyl)piperazin-1-yl]-5-fluoro-4-morpholino-6-[4-(2,3-xylyl)piperazin-1-yl]pyrimidine]	104 to 105
Nc1c(N2CCOCC2)nc(/C=C/c2cccs2)nc1N1CCOCC1 [Compound 132, 5-amino-4,6-dimorpholino-2-[2-(2-thienyl)vinyl]pyrimidine]	221 to 223
Nc1c(N2CCOCC2)nc(/C=C/c2ccncc2)nc1N1CCOCC1 [Compound 134, 5-amino-4,6-dimorpholino-2-[2-(pyridin-4-yl)vinyl]pyrimidine]	216 to 220
CC(=O)c1ccc(N2CCN(c3cc(N4CCOCC4)nc(N4CCOCC4)n3)CC2)cc1 [Compound 25, 4-[4-(4-acetylphenyl)piperazin-1-yl]-2,6-dimorpholinopyrimidine]	198 to 201
CC(C)(C)OC(=O)N1CCN(c2nc(N3CCN(c4ccccc4Cl)CC3)nc(N3CCOCC3)c2F)CC1 [Compound 188, 4-(4-tert-butoxycarbonylpiperazin-1-yl)-2-[4-(2-chlorophenyl)piperazin-1-yl]-5-fluoro-6-morpholinopyrimidine]	75 to 76
Cc1cccc(N2CCN(c3nc(N4CCN(C(=O)OC(C)(C)C)CC4)nc(N4CCOCC4)c3F)CC2)c1C [Compound 177, 2-(4-tert-butoxycarbonylpiperazin-1-yl)-5-fluoro-4-morpholino-6-[4-(2,3-xylyl)piperazin-1-yl]pyrimidine]	81 to 82
OC1(c2ccccc2)CCN(c2cc(N3CCOCC3)nc(N3CCOCC3)n2)CC1 [Compound 37, 4-(4-hydroxy-4-phenylpiperidin-1-yl)-2,6-dimorpholinopyrimidine]	189 to 192
Nc1c(N2CCOCC2)nc(/C=C/c2ccc(F)cc2)nc1N1CCOCC1 [Compound 135, 5-amino-2-[2-(4-fluorophenyl)vinyl]-4,6-dimorpholinopyrimidine]	193 to 195
Cc1cccc(N2CCN(c3nc(N4CCOCC4)cc(N4CCOCC4)n3)CC2)c1C [Compound 29, 4,6-dimorpholino-2-[4-(2,3-xylyl)piperazin-1-yl]pyrimidine]	141
C1=C(c2ccccc2)CCN(c2cc(N3CCOCC3)nc(N3CCOCC3)n2)C1 [Compound 41, 2,4-dimorpholino-6-[4-phenyl (1,2,5,6-tetrahydropyridin-1-yl)]pyrimidine]	165 to 168

Now from value to molecule:

melting point [°C]	Compound
191 to 194	Cc1ccc(N2CCN(c3nc(N4CCOCC4)cc(N4CCOCC4)n3)CC2)cc1 [Compound 22, 2-[4-(4-methylphenyl)piperazin-1-yl]-4,6-dimorpholinopyrimidine]
214	COc1ccccc1N1CCN(c2nc(N3CCOCC3)cc(N3CCOCC3)n2)CC1 [Compound 32, 2-[4-(2-methoxyphenyl)piperazin-1-yl]-4,6-dimorpholinopyrimidine]
162 to 163	O=Cc1c(N2CCOCC2)nc(N2CCN(c3ccccc3)CC2)nc1N1CCOCC1 [Compound 142, 5-formyl-4,6-dimorpholino-2-(4-phenylpiperazin-1-yl)pyrimidine]
163 to 165	Fc1c(N2CCOCC2)nc(N2CCN(c3ncccn3)CC2)nc1N1CCOCC1 [Compound 92, 5-fluoro-4,6-dimorpholino-2-[4-(pyrimidin-2-yl)piperazin-1-yl]pyrimidine]
149 to 152	Cc1c(N2CCOCC2)nc(N2CCOCC2)nc1N1CCN(c2ccccc2)CC1 [Compound 45, 5-methyl-2,4-dimorpholino-6-(4-phenylpiperazin-1-yl)pyrimidine]
131 to 133	Clc1c(N2CCOCC2)nc(N2CCN(c3ccccc3)CC2)nc1N1CCOCC1 [Compound 130, 5-chloro-4,6-dimorpholino-2-(4-phenylpiperazin-1-yl)pyrimidine]
215	Fc1c(N2CCOCC2)nc(N2CCN(c3ccc(Cl)cc3)CC2)nc1N1CCOCC1 [Compound 109, 2-[4-(4-chlorophenyl)piperazin-1-yl]-5-fluoro-4,6-dimorpholinopyrimidine]
145	CCOc1ccccc1N1CCN(c2nc(N3CCOCC3)c(F)c(N3CCOCC3)n2)CC1 [Compound 103, 2-[4-(2-ethoxyphenyl)piperazin-1-yl]-5-fluoro-4,6-dimorpholinopyrimidine]
108 to 111	Fc1c(N2CCOCC2)nc(N2CCOCC2)nc1N1CCN(Cc2ccccc2)CC1 [Compound 90, 4-(4-benzylpiperazin-1-yl)-5-fluoro-2,6-dimorpholinopyrimidine]
148	Fc1ccccc1N1CCN(c2nc(N3CCOCC3)cc(N3CCOCC3)n2)CC1 [Compound 31, 2-[4-(2-fluorophenyl)piperazin-1-yl]-4,6-dimorpholinopyrimidine]
162 to 166	CC(=O)c1ccc(N2CCN(c3nc(N4CCOCC4)cc(N4CCOCC4)n3)CC2)cc1 [Compound 24, 2-[4-(4-acetylphenyl)piperazin-1-yl]-4,6-dimorpholinopyrimidine]
141	Oc1ccc(N2CCN(c3nc(N4CCOCC4)c(F)c(N4CCOCC4)n3)CC2)cc1 [Compound 107, 5-fluoro-2-[4-(4-hydroxyphenyl)piperazin-1-yl]-4,6-dimorpholinopyrimidine]
118 to 120	COc1c(N2CCOCC2)nc(N2CCOCC2)nc1N1CCN(c2ccccc2)CC1 [Compound 50, 5-methoxy-2,4-dimorpholino-6-(4-phenylpiperazin-1-yl)pyrimidine]
215 to 218	Fc1ccc(N2CCN(c3cc(N4CCOCC4)nc(N4CCOCC4)n3)CC2)cc1 [Compound 21, 4-[4-(4-fluorophenyl)piperazin-1-yl]-2,6-dimorpholinopyrimidine]
203 to 206	c1ccc(-c2c(N3CCOCC3)nc(N3CCOCC3)nc2N2CCN(c3ccccc3)CC2)cc1 [Compound 47, 2,4-dimorpholino-5-phenyl-6-(4-phenylpiperazin-1-yl)pyrimidine]
171	COc1ccccc1N1CCN(c2nc(N3CCOCC3)c(F)c(N3CCOCC3)n2)CC1 [Compound 108, 5-fluoro-2-[4-(2-methoxyphenyl)piperazin-1-yl]-4,6-dimorpholinopyrimidine]
184	CCOc1ccccc1N1CCN(c2nc(N3CCOCC3)cc(N3CCOCC3)n2)CC1 [Compound 27, 2-[4-(2-ethoxyphenyl)piperazin-1-yl]-4,6-dimorpholinopyrimidine]
171 to 174	Fc1ccc(N2CCN(c3nc(N4CCOCC4)nc(N4CCOCC4)c3F)CC2)cc1 [Compound 97, 5-fluoro-4-[4-(4-fluorophenyl)piperazin-1-yl]-2,6-dimorpholinopyrimidine]
